Test results from patent US7138361B2, “Herbicidal heterocycles” (E. I. du Pont de Nemours and Company, priority 2000, dated 2006).

Legend:
Format in all cases: in vivo
[1] = tested on: giant foxtail (Setaria faberii); assay: Test B preemergence
Outline: (§1)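 Visual injury scores, 0 = no effect to 100 = complete control, assigned against controls after 13 to 15 days in the greenhouse. Compounds formulated in non-phytotoxic solvent plus surfactant and applied to soil after planting (pre) or onto foliage of 1- to 4-leaf plants (post).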

[2] = tested on: pigweed (Amaranthus retroflexus); assay: Test B preemergence
Outline: as §1

[3] = tested on: lambsquarters (Chenopodium album); assay: Test B preemergence
Outline: as §1

[4] = tested on: crabgrass (Digitaria sanguinalis); assay: Test B preemergence
Outline: as §1

[5] = tested on: barnyardgrass (Echinochloa crus-galli); assay: Test B preemergence
Outline: as §1

corn (Zea mays) [6] = assay: Test B preemergence
Outline: as §1

rice (Oryza saliva) [7] = assay: Test B preemergence
Outline: as §1

[8] = tested on: morning glory (Ipomoea hederacea); assay: Test B preemergence
Outline: as §1

[9] = tested on: velvetleaf (Abutilon theophrasti); assay: Test B preemergence
Outline: as §1

[10] = tested on: cocklebur (Xanthium strumarium); assay: Test B preemergence
Outline: as §1

[11] = tested on: Surinam grass (Brachiaria decumbens); assay: Test B preemergence
Outline: as §1

Sunflower = assay: Test C preemergence; details: scale 0 to 100, 0 no effect, 100 complete control
rice (Oryza saliva) [12] = assay: Test C flooded paddy test; details: for Rice plant response rating: Flooded Paddy, scale 0 to 100, 0 no effect, 100 complete control; for Plant response rating, Rice: flooded paddy test, scale 0 to 100 (0 no effect, 100 complete control)
Outline: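 Visual ratings (0 = no effect, 100 = complete control) were made 12–14 days after treatment, relative to greenhouse controls. Plants in the flooded paddy test were rice, smallflower flatsedge, duck salad and barnyardgrass, treated at the 2-leaf stage.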

Nightshade = assay: Test C preemergence; details: visual evaluation after 12 to 14 days
[13] = tested on: giant foxtail (Setaria faberii); assay: Test B postemergence
Outline: as §1

[14] = tested on: blackgrass (Alopecurus myosuroides); assay: Test B postemergence
Outline: as §1

wild oat (Avena fatua) = assay: Test B postemergence
Outline: as §1

[15] = tested on: pigweed (Amaranthus retroflexus); assay: Test B postemergence
Outline: as §1

[16] = tested on: lambsquarters (Chenopodium album); assay: Test B postemergence
Outline: as §1

[17] = tested on: crabgrass (Digitaria sanguinalis); assay: Test B postemergence
Outline: as §1

[18] = tested on: barnyardgrass (Echinochloa crus-galli); assay: Test B postemergence
Outline: as §1

corn (Zea mays) [19] = assay: Test B postemergence
Outline: as §1

[20] = tested on: morning glory (Ipomoea hederacea); assay: Test B postemergence
Outline: as §1

[21] = tested on: velvetleaf (Abutilon theophrasti); assay: Test B postemergence
Outline: as §1

[22] = tested on: wheat (Triticum aestivum); assay: Test B postemergence
Outline: as §1

[23] = tested on: cocklebur (Xanthium strumarium); assay: Test B postemergence
Outline: as §1

[24] = tested on: Surinam grass (Brachiaria decumbens); assay: Test B postemergence
Outline: as §1

[25] = Preemergence, Rate 500 g/ha, scale 0 to 100, 0 no effect, 100 complete control
[26] = preemergence, Rate 125 g/ha, scale of 0 to 100 where 0 is no effect and 100 is complete control, 13 to 15 days
[27] = Rate 125 g/ha, scale 0 (no effect) to 100 (complete control), 13 to 15 days
[28] = Rate 500 g/ha, scale 0 to 100, 0 is no effect, 100 is complete control, 13 to 15 days
[29] = Rate 125 g/ha, scale 0 to 100, 0 no effect, 100 complete control

CCCOc1cc(N2CCC(n3ccc(C(C)(C)C)n3)C2=O)ccc1C (stereo not drawn) [Compound 107]
Plant response rating, Foxtail, Giant [1, 25]: 40 | Plant response rating, Foxtail, Giant [1, 26]: 0 | Plant response rating, Pigweed [2, 25]: 100 | Plant response rating, Pigweed [2, 26]: 80 | Plant response rating, Lambsquarters [3, 25]: 100 | Plant response rating, Lambsquarters [3, 26]: 100 | Plant response rating, Crabgrass [4, 25]: 100 | Plant response rating, Crabgrass [4, 26]: 0 | Plant response rating, Barnyardgrass [5, 25]: 30 | Plant response rating, Barnyardgrass [5, 26]: 0 | Plant response rating, Corn (corn (Zea mays) [6]; [25]): 0 | Plant response rating, Corn (corn (Zea mays) [6]; [26]): 0 | Plant response rating, Rice (rice (Oryza saliva) [7]; [25]): 0 | Plant response rating, Rice (rice (Oryza saliva) [7]; [26]): 0 | Plant response rating, Morningglory [8, 25]: 100 | Plant response rating, Morningglory [8, 26]: 0 | Plant response rating, Velvetleaf [9, 25]: 0 | Plant response rating, Velvetleaf [9, 26]: 0 | Plant response rating, Cocklebur [10, 25]: 20 | Plant response rating, Cocklebur [10, 26]: 0 | Plant response rating, Surinam grass [11, 25]: 70 | Plant response rating, Surinam grass [11, 26]: 0 | Plant response rating, Sunflower (Sunflower; Rate 250 g/ha): 40 | Rice plant response rating (rice (Oryza saliva) [12]; Rate 250 g/ha): 0 | Rice plant response rating (rice (Oryza saliva) [12]; Rate 500 g/ha): 20 | Plant response rating, Rice (rice (Oryza saliva) [12]; Rate 62 g/ha): 0 | Plant response rating, Rice (rice (Oryza saliva) [12]; Rate 125 g/ha): 0 | Plant response rating (0 to 100), Nightshade (Nightshade; Rate 500 g/ha): 90 | Plant response rating, Foxtail, Giant [13, 27]: 0 | Plant response rating, Foxtail, Giant [13, 28]: 0 | Plant response rating, Blackgrass [14, 27]: 0 | Plant response rating, Blackgrass [14, 28]: 0 | Plant response rating, Wild Oat (wild oat (Avena fatua); [28]): 0 | Plant response rating, Pigweed [15, 28]: 90 | Plant response rating, Lambsquarters [16, 28]: 100 | Plant response rating, Crabgrass [17, 27]: 0 | Plant response rating, Crabgrass [17, 28]: 0 | Plant response rating, Barnyardgrass [18, 27]: 0 | Plant response rating, Barnyardgrass [18, 28]: 0 | Plant response rating, Corn (corn (Zea mays) [19]; [27]): 0 | Plant response rating, Corn (corn (Zea mays) [19]; [28]): 0 | Plant response rating, Morningglory [20, 28]: 70 | Plant response rating, Velvetleaf [21, 28]: 70 | Plant response rating, Wheat [22, 28]: 0 | Plant response rating, Cocklebur [23, 27]: 70 | Plant response rating, Cocklebur [23, 28]: 100 | Plant response rating, Surinam grass [24, 27]: 0 | Plant response rating, Surinam grass [24, 28]: 0

CC(C)(C)c1ccn(C2CCN(c3ccc(Cl)c(Br)c3)C2=O)n1 (stereo not drawn) [Compound 56]
Plant response rating, Foxtail, Giant [1, 25]: 90 | Plant response rating, Foxtail, Giant [1, 26]: 50 | Plant response rating, Pigweed [2, 25]: 100 | Plant response rating, Pigweed [2, 26]: 100 | Plant response rating, Lambsquarters [3, 25]: 100 | Plant response rating, Lambsquarters [3, 26]: 100 | Plant response rating, Crabgrass [4, 25]: 100 | Plant response rating, Crabgrass [4, 26]: 30 | Plant response rating, Barnyardgrass [5, 25]: 50 | Plant response rating, Barnyardgrass [5, 26]: 0 | Plant response rating, Corn (corn (Zea mays) [6]; [25]): 0 | Plant response rating, Corn (corn (Zea mays) [6]; [26]): 0 | Plant response rating, Rice (rice (Oryza saliva) [7]; [25]): 0 | Plant response rating, Rice (rice (Oryza saliva) [7]; [26]): 0 | Plant response rating, Morningglory [8, 25]: 0 | Plant response rating, Morningglory [8, 26]: 0 | Plant response rating, Velvetleaf [9, 25]: 0 | Plant response rating, Velvetleaf [9, 26]: 0 | Plant response rating, Cocklebur [10, 26]: 0 | Plant response rating, Surinam grass [11, 25]: 30 | Plant response rating, Surinam grass [11, 26]: 30 | Plant response rating, Sunflower (Sunflower; Rate 125 g/ha): 0 | Rice plant response rating (rice (Oryza saliva) [12]; Rate 250 g/ha): 0 | Rice plant response rating (rice (Oryza saliva) [12]; Rate 500 g/ha): 0 | Plant response rating, Rice (rice (Oryza saliva) [12]; Rate 62 g/ha): 0 | Plant response rating, Rice (rice (Oryza saliva) [12]; Rate 125 g/ha): 0 | Plant response rating (0 to 100), Nightshade (Nightshade; Rate 250 g/ha): 0 | Plant response rating, Foxtail, Giant [13, 27]: 0 | Plant response rating, Foxtail, Giant [13, 28]: 0 | Plant response rating, Blackgrass [14, 27]: 0 | Plant response rating, Blackgrass [14, 28]: 0 | Plant response rating, Wild Oat (wild oat (Avena fatua); [27]): 0 | Plant response rating, Wild Oat (wild oat (Avena fatua); [28]): 0 | Plant response rating, Pigweed [15, 27]: 90 | Plant response rating, Pigweed [15, 28]: 90 | Plant response rating, Lambsquarters [16, 27]: 80 | Plant response rating, Lambsquarters [16, 28]: 90 | Plant response rating, Crabgrass [17, 27]: 0 | Plant response rating, Crabgrass [17, 28]: 0 | Plant response rating, Barnyardgrass [18, 27]: 0 | Plant response rating, Barnyardgrass [18, 28]: 0 | Plant response rating, Corn (corn (Zea mays) [19]; [27]): 0 | Plant response rating, Corn (corn (Zea mays) [19]; [28]): 0 | Plant response rating, Morningglory [20, 27]: 0 | Plant response rating, Morningglory [20, 28]: 10 | Plant response rating, Velvetleaf [21, 27]: 0 | Plant response rating, Velvetleaf [21, 28]: 0 | Plant response rating, Wheat [22, 27]: 0 | Plant response rating, Wheat [22, 28]: 0 | Plant response rating, Cocklebur [23, 27]: 0 | Plant response rating, Cocklebur [23, 28]: 0 | Plant response rating, Surinam grass [24, 27]: 0 | Plant response rating, Surinam grass [24, 28]: 0

CCOc1cccc(N2CCC(n3ccc(C(C)C)n3)C2=O)c1 (stereo not drawn) [Compound 128]
Plant response rating, Foxtail, Giant [1, 25]: 100 | Plant response rating, Foxtail, Giant [1, 26]: 100 | Plant response rating, Pigweed [2, 25]: 100 | Plant response rating, Pigweed [2, 26]: 100 | Plant response rating, Lambsquarters [3, 25]: 100 | Plant response rating, Lambsquarters [3, 26]: 100 | Plant response rating, Crabgrass [4, 25]: 100 | Plant response rating, Crabgrass [4, 26]: 100 | Plant response rating, Barnyardgrass [5, 25]: 100 | Plant response rating, Barnyardgrass [5, 26]: 100 | Plant response rating, Corn (corn (Zea mays) [6]; [25]): 60 | Plant response rating, Corn (corn (Zea mays) [6]; [26]): 30 | Plant response rating, Rice (rice (Oryza saliva) [7]; [25]): 100 | Plant response rating, Rice (rice (Oryza saliva) [7]; [26]): 100 | Plant response rating, Morningglory [8, 25]: 90 | Plant response rating, Morningglory [8, 26]: 70 | Plant response rating, Velvetleaf [9, 25]: 50 | Plant response rating, Velvetleaf [9, 26]: 0 | Plant response rating, Cocklebur [10, 25]: 60 | Plant response rating, Cocklebur [10, 26]: 0 | Plant response rating, Surinam grass [11, 25]: 100 | Plant response rating, Surinam grass [11, 26]: 100 | Plant response rating, Sunflower (Sunflower; Rate 250 g/ha): 100 | Rice plant response rating (rice (Oryza saliva) [12]; Rate 250 g/ha): 30 | Rice plant response rating (rice (Oryza saliva) [12]; Rate 500 g/ha): 70 | Plant response rating, Rice (rice (Oryza saliva) [12]; Rate 62 g/ha): 0 | Plant response rating, Rice (rice (Oryza saliva) [12]; Rate 125 g/ha): 30 | Plant response rating (0 to 100), Nightshade (Nightshade; Rate 500 g/ha): 100 | Plant response rating, Foxtail, Giant [13, 29]: 0 | Plant response rating, Blackgrass [14, 29]: 0 | Plant response rating, Blackgrass [14, 28]: 0 | Plant response rating, Wild Oat (wild oat (Avena fatua); [29]): 0 | Plant response rating, Pigweed [15, 29]: 0 | Plant response rating, Lambsquarters [16, 29]: 0 | Plant response rating, Crabgrass [17, 29]: 0 | Plant response rating, Barnyardgrass [18, 29]: 0 | Plant response rating, Barnyardgrass [18, 28]: 80 | Plant response rating, Corn (corn (Zea mays) [19]; [29]): 0 | Plant response rating, Corn (corn (Zea mays) [19]; [28]): 0 | Plant response rating, Morningglory [20, 29]: 0 | Plant response rating, Velvetleaf [21, 29]: 0 | Plant response rating, Wheat [22, 29]: 0 | Plant response rating, Cocklebur [23, 29]: 0 | Plant response rating, Cocklebur [23, 28]: 50 | Plant response rating, Surinam grass [24, 29]: 70 | Plant response rating, Surinam grass [24, 28]: 100
